Calls of active or inactive are those of the source. The rule behind the calls is not given here.
Test system: CCRIS mutagenicity, Ames/micronucleus/aberration tests
Test: CCRIS mutagenicity studies

`COc1ccccc1[N+](=O)[O-]` was tested, and the mutagenic call (End Point: IN VITRO CHROMOSOMAL ABERRATIONS, Test System: CHINESE HAMSTER OVARY CELLS, Metabolic Activation: RAT, LIVER, S-9, AROCLOR 1254) was “active; positive; precipitation occurred at all doses”, the mutagenic call (End Point: IN VITRO CHROMOSOMAL ABERRATIONS, Test System: CHL CELLS, Metabolic Activation: RAT, LIVER, S-9, SODIUM PHENOBARBITAL AND 5,6-BENZOFLAVONE) was “active; positive (structural changes)” and the mutagenic call (Test System: AMES SALMONELLA TYPHIMURIUM, Strain/Indicator: TA97, Metabolic Activation: HAMSTER LIVER S-9, AROCLOR 1254 (10%), Method: PREINCUBATION) was “inactive; negative”. The mutagenic call (Test System: AMES SALMONELLA TYPHIMURIUM, Strain/Indicator: TA97, Metabolic Activation: NONE, Method: PREINCUBATION) was “inactive; negative”, the mutagenic call (Test System: AMES SALMONELLA TYPHIMURIUM, Strain/Indicator: TA97, Metabolic Activation: RAT LIVER S-9, AROCLOR 1254 (10%), Method: PREINCUBATION) was “inactive; negative” and the mutagenic call (Test System: AMES SALMONELLA TYPHIMURIUM, Strain/Indicator: TA98, Metabolic Activation: HAMSTER LIVER S-9, AROCLOR 1254 (10%), Method: PREINCUBATION) was “inactive; negative”. For the same compound, the mutagenic call (Test System: AMES SALMONELLA TYPHIMURIUM, Strain/Indicator: TA98, Metabolic Activation: RAT LIVER S-9, AROCLOR 1254 (10%), Method: PREINCUBATION) was “inactive; negative”, the mutagenic call (Test System: AMES SALMONELLA TYPHIMURIUM, Strain/Indicator: TA98, Metabolic Activation: RAT LIVER S-9, PHENOBARBITAL AND BETA-NAPHTHOFLAVONE, Method: PREINCUBATION) was “inactive; negative” and the mutagenic call (Test System: AMES SALMONELLA TYPHIMURIUM, Strain/Indicator: TA98, Metabolic Activation: RAT, LIVER, S-9, KANECHLOR 500, Method: PREINCUBATION) was “inactive; negative”. The mutagenic call (Test System: AMES SALMONELLA TYPHIMURIUM, Strain/Indicator: TA100, Metabolic Activation: HAMSTER LIVER S-9, AROCLOR 1254 (10%), Method: PREINCUBATION) was “active; positive”, the mutagenic call (Test System: AMES SALMONELLA TYPHIMURIUM, Strain/Indicator: TA100, Metabolic Activation: HAMSTER, LIVER, S-9, AROCLOR 1254, FLAVIN MONONUCLEOTIDE, Method: PREINCUBATION) was “inactive; negative” and the mutagenic call (Test System: AMES SALMONELLA TYPHIMURIUM, Strain/Indicator: TA100, Metabolic Activation: HAMSTER, LIVER, S-9, AROCLOR 1254, Method: PREINCUBATION) was “inactive; negative”. For the same compound, the mutagenic call (Test System: AMES SALMONELLA TYPHIMURIUM, Strain/Indicator: TA100, Metabolic Activation: RAT LIVER S-9, AROCLOR 1254 (10%), Method: PREINCUBATION) was “active; positive”, the mutagenic call (Test System: AMES SALMONELLA TYPHIMURIUM, Strain/Indicator: TA100, Metabolic Activation: RAT LIVER S-9, PHENOBARBITAL AND BETA-NAPHTHOFLAVONE, Method: PREINCUBATION) was “active; positive” and the mutagenic call (Test System: AMES SALMONELLA TYPHIMURIUM, Strain/Indicator: TA100, Metabolic Activation: RAT, LIVER, S-9, AROCLOR 1254, FLAVIN MONONUCLEOTIDE, Method: PREINCUBATION) was “inactive; negative”. The mutagenic call (Test System: AMES SALMONELLA TYPHIMURIUM, Strain/Indicator: TA100, Metabolic Activation: RAT, LIVER, S-9, AROCLOR 1254, Method: STANDARD PLATE) was “active; positive”, the mutagenic call (Test System: AMES SALMONELLA TYPHIMURIUM, Strain/Indicator: TA100, Metabolic Activation: RAT, LIVER, S-9, KANECHLOR 500, Method: PREINCUBATION) was “active; positive” and the mutagenic call (Test System: AMES SALMONELLA TYPHIMURIUM, Strain/Indicator: TA1535, Metabolic Activation: HAMSTER LIVER S-9, AROCLOR 1254 (10%), Method: PREINCUBATION) was “inactive; negative”. The mutagenic call (Test System: AMES SALMONELLA TYPHIMURIUM, Strain/Indicator: TA1535, Metabolic Activation: NONE, Method: PREINCUBATION) was “inactive; negative”, the mutagenic call (Test System: AMES SALMONELLA TYPHIMURIUM, Strain/Indicator: TA1535, Metabolic Activation: RAT LIVER S-9, AROCLOR 1254 (10%), Method: PREINCUBATION) was “inactive; negative” and the mutagenic call (Test System: AMES SALMONELLA TYPHIMURIUM, Strain/Indicator: TA1535, Metabolic Activation: RAT LIVER S-9, PHENOBARBITAL AND BETA-NAPHTHOFLAVONE, Method: PREINCUBATION) was “inactive; negative”. For the same compound, the mutagenic call (Test System: AMES SALMONELLA TYPHIMURIUM, Strain/Indicator: TA1537, Metabolic Activation: HAMSTER LIVER S-9, AROCLOR 1254 (10%), Method: PREINCUBATION) was “inactive; negative”, the mutagenic call (Test System: AMES SALMONELLA TYPHIMURIUM, Strain/Indicator: TA1537, Metabolic Activation: NONE, Method: PREINCUBATION) was “inactive; negative” and the mutagenic call (Test System: AMES SALMONELLA TYPHIMURIUM, Strain/Indicator: TA1537, Metabolic Activation: RAT LIVER S-9, AROCLOR 1254 (10%), Method: PREINCUBATION) was “inactive; negative”. The mutagenic call (Test System: AMES SALMONELLA TYPHIMURIUM, Strain/Indicator: TA1537, Metabolic Activation: RAT LIVER S-9, PHENOBARBITAL AND BETA-NAPHTHOFLAVONE, Method: PREINCUBATION) was “inactive; negative”, the mutagenic call (Test System: AMES SALMONELLA TYPHIMURIUM, Strain/Indicator: TA1538, Metabolic Activation: NONE, Method: PREINCUBATION) was “active; positive” and the mutagenic call (Test System: E.COLI, Strain/Indicator: WP2UVRA, Metabolic Activation: NONE, Method: PREINCUBATION) was “inactive; negative”. For the same compound, the mutagenic call (Test System: E.COLI, Strain/Indicator: WP2UVRA, Metabolic Activation: RAT LIVER S-9, PHENOBARBITAL AND BETA-NAPHTHOFLAVONE, Method: PREINCUBATION) was “inactive; negative”.

Source: PubChem BioAssay AID1259407 (Chemical Carcinogenesis Research Information System (CCRIS), 2018)
